Reference: US12215123B2, “Cordycepin-based derivatized compound with anti-tumor effect” (NANJING TECH UNIVERSITY, priority 2022, dated 2025)
Where two headings read alike, the source gives them in different places.

What was measured:
[1] = system: gastric cancer cell line BGC-823; assay: MTT proliferation, gastric cancer cell line BGC-823; type: cell-based; details: Homo sapiens, read-out: IC50 (μM) in gastric cancer cells, BGC-823
In short: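 Tumour cells in exponential growth were trypsinised, seeded at 2 to 4×10^4 cells/mL, cultured 24 hours, then exposed to compounds for 72 hours. MTT was added for 4 hours, formazan dissolved in DMSO and absorbance read at 570 nm. IC50 came from an S curve of inhibition rate against concentration.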

B16-F10 melanoma cells = assay: Mouse transplanted melanoma model; type: in vivo, C57BL/6j nude mice; details: B16-F10 transplanted mice, intragastric 500 ug/time/animal every other day, 24 days; blank 1760 mm^3
Protocol: (§1) The feeding of the mouse model in the drug evaluation follows that: mice are fed and treated in a laminar flow cabinet, with 5 nude mice in each cage, drinking water and feedstuffs are added once every 3 days, and paddings are replaced once a week; a number of mice kept in each cage is no more than 5, the mice in separate cages are kept in groups as far as possible, and the mice should not be kept in a single cage; the animal management must conform to the relevant national standards on animal feeding management, and the behavioral needs of animals should be concerned at the same time to avoid unnecessary stress; the normal physiological and behavioral needs of animals, such as defecation, urination, constant body temperature maintenance, normal activities, posture adjustment and reproduction are met; good ventilation and dry animals are kept; the animals can access to drinking water and food at will, and supplementation, replacement and cleaning operations are easily carried out; a solid and safe environment is provided to avoid accidents of animals, such as escaping or limb trapping in a gap; the animals are avoided from being damaged by sharp edges or protrusions; and the animals are not disturbed during observation.
A mouse transplanted melanoma model was established and a drug was evaluated. 2.5×10^5 B16-F10 melanoma cells were suspended in 100 μL of PBS to be inoculated into an outer side of thigh of left lower limb of C57BL/6j nude mice. One week later, when the transplanted tumor reached about 100 mm^3, the mice were randomly divided into ten groups, with 10 mice in each group, comprising a blank control group, a cordycepin group, a compound 13 group, a compound 14 group, a compound 17 group, a compound 19 group, a compound 22 group, a compound 26 group, a compound 29 group and a compound 34 group respectively. The blank control group was intragastrically administrated with a nutritional agent such as a corn steep liquor and DMSO as a solvent control every day for 24 consecutive days, and the compound groups were intragastrically administrated with corresponding compounds (500 ug/time/animal in all cases) every other day for 24 consecutive days. […] The mice were killed after the experiment, blood and corresponding tissue samples were collected, tumor bodies were immediately photographed and weighed, and some tumor tissues were fixed in a formalin solution to be further detected. Two vertical diameters (length and width) of the transplanted tumor were measured with a caliper every two days to calculate a size of the transplanted tumor, and a tumor value was calculated according to a formula: tumor volume (mm^3)=[…].

[2] = system: BGC-823 gastric cancer cells; assay: Mouse transplanted gastric cancer model; type: in vivo, C57BL/6j nude mice; details: BGC-823 transplanted mice, intragastric 500 ug/time/animal every day, 18 days; for tumor weight: control 1.73 g
Protocol: as §1
A mouse transplanted gastric cancer model was established and a drug was evaluated. 2×10^7 BGC-823 gastric cancer cells were suspended in 100 μL of PBS to be inoculated into an anterior chest wall of C57BL/6j nude mice, disinfection was carried out with 75% ethanol, and the most obvious part of apical impulse was touched with hand to inoculate the cells to a left ventricle in a second intercostal space about 3 mm to the left of the sternum. About one week later, when the transplanted tumor reached about 100 mm^3, the mice were randomly divided into five groups, with 10 mice in each group, comprising a control group, a cordycepin group, and compound 16, compound 18 and compound 24 drug groups respectively. The control group was intragastrically administrated with a nutritional agent such as a corn steep liquor and DMSO as a solvent control every day; the cordycepin group was intragastrically administrated with the cordycepin (500 ug/time/animal) every day under configuration with DMSO; and the compound drug groups were intragastrically administrated with the compounds (500 ug/time/animal) every day under configuration with DMSO. The administration was carried out for 18 consecutive days. Changes of gastric tumor sizes in the five groups of mice were observed every two days, the mice were killed after the experiment, blood and corresponding tissue samples were collected, and tumor bodies were immediately photographed and weighed.

IDB ovarian cancer cells = assay: Mouse transplanted ovarian cancer model; type: in vivo, C57BL/6j nude mice; details: ovarian cancer transplanted mice, 15 days, 500 ug/time/animal intragastric
Protocol: as §1
A mouse transplanted ovarian cancer model was established and a drug was evaluated. […]

Row | Structure (SMILES) | IC50 ([1]; MTT, 72 hours, BGC-823) [µM] | tumor volume (B16-F10 melanoma cells) [mm^3] | tumor weight, times lower than that of the control group [2] | tumor weight [2] [g] | IC50 ([1]; BGC-823, 72 h) [µM] | tumor size reduced by (times) versus control (IDB ovarian cancer cells)
1 | Nc1ncnc2c1ncn2[C@@H]1O[C@H](CO)C[C@H]1O [Cordycepin, 3′-deoxyadenosine] | 235 | 600 | about 4 times | 0.46 | – | –
2 | CC(C)OC(=O)C(C)NP(=O)(COC[C@@H]1CC(O)[C@H](n2cnc3c(NC(=O)c4ccncc4)ncnc32)O1)Oc1ccccc1 (some centres unmarked) [Compound 24, isopropyl((((4-hydroxy-5-(6-(isonicotinamide)-9H-purin-9-yl)tetrahydrofuran-2-yl)methoxy)methyl)(phenoxy)phosphoryl)alanine ester] | – | – | about 12 times | 0.14 | 0.09 | about 2 times
